System: spleen cells
Design: species or system CD-1 mice
Settings: mouse, in vivo

QS21
cell-mediated immune response (cytokine profile), in words: strong and balanced Th1 plus Th2 cytokine profile
